Measured values: PMC10033409, “Autoregulation of GPCR signalling through the third intracellular loop” (Nature, 2023)
Several values for one entry are separate records, joined by “and”; a condition that tells them apart may be missing. Identical values can stand only once. Counter-ions that a name gives are not always drawn. Like-named read-outs stand apart in the source and are kept apart here.

Legend:
β2AR [1] = experiment: cAMP accumulation (cAMP-Glo), β2AR; assay type: cell-based, human; details: for cAMP response (Average): β2AR L258Azi
β2AR [2] = details: for competition binding curve vs isoproterenol (Extended Data Figure 3M), Fit / competition binding curve vs isoproterenol (Extended Data Figure 3L), Fit: fitted curve; for competition binding curve vs isoproterenol (Extended Data Figure 3L), Fit / competition binding curve vs isoproterenol (Extended Data Figure 3L): Wild-Type + Gs-Peptide
Procedure: Reactions were equilibrated, washed, and measured following the same procedure listed above for the radioligand antagonist-binding assay. […] Weighted averages of these IC50 values were used for comparison purposes and inhibition constant (Ki) calculations. […] Binding assays were performed in technical duplicates. Three biological replicates were collected with different membrane preparations for each replicate.

SMILES: CC(C)NCC(O)c1ccc(O)c(O)c1 (stereo not drawn) [Isoproterenol, isoproterenol (+)-bitartrate salt]
- Emax (Average) (β2AR [1]; β2AR L258 (L258Azi), fit of the isoproterenol concentration-response of Extended Data Figure 3B): 1.23E+05
- cAMP response (Average) (β2AR [1]; Log (Isoproterenol (M)) -4): 1.30E+05
- cAMP response (Average) (β2AR [1]; Log (Isoproterenol (M)) -5): 1.30E+05
- cAMP response (Average) (β2AR [1]; Log (Isoproterenol (M)) -6): 1.28E+05
- cAMP response (Average) (β2AR [1]; Log (Isoproterenol (M)) -7): 1.04E+05
- cAMP response (Average) (β2AR [1]; Log (Isoproterenol (M)) -7.52288): 1.08E+05
- cAMP response (Average) (β2AR [1]; Log (Isoproterenol (M)) -8): 1.10E+05
- cAMP response (Average) (β2AR [1]; Log (Isoproterenol (M)) -8.52288): 6.79E+04
- cAMP response (Average) (β2AR [1]; Log (Isoproterenol (M)) -9): 4.10E+04
- cAMP response (Average) (β2AR [1]; Log (Isoproterenol (M)) -9.52288): 2.28E+04
- cAMP response (Average) (β2AR [1]; Log (Isoproterenol (M)) -10): -8.91E+03
- cAMP response (Average) (β2AR [1]; Log (Isoproterenol (M)) -10.5229): -2.86E+04
- cAMP response (Average) (β2AR [1]; Log (Isoproterenol (M)) -11): -9.58E+03
- cAMP response (Average) (β2AR [1]; Log (Isoproterenol (M)) -12): -4.68E+03
- cAMP response (Average) (β2AR [1]; Log (Isoproterenol (M)) -13): 2.29E+03
- competition binding curve vs isoproterenol (Extended Data Figure 3M), Fit (β2AR [2]; Sensor + Gs-peptide, Isoproterenol 1.00E-03 M): 1.12
- competition binding curve vs isoproterenol (Extended Data Figure 3M) (β2AR [2]; Sensor + Gs-peptide, Isoproterenol 1.00E-03 M, replicates 1-3 and Average): 0.73 and -0.00169
- competition binding curve vs isoproterenol (Extended Data Figure 3M), Fit (β2AR [2]; Sensor + Gs-peptide, Isoproterenol 1.00E-04 M): 1.39
- competition binding curve vs isoproterenol (Extended Data Figure 3M) (β2AR [2]; Sensor + Gs-peptide, Isoproterenol 1.00E-04 M, replicates 1-3 and Average): 1.06 and 1.58 and 0.34 and 1.27
- competition binding curve vs isoproterenol (Extended Data Figure 3M), Fit (β2AR [2]; Sensor + Gs-peptide, Isoproterenol 1.00E-05 M): 3.99
- competition binding curve vs isoproterenol (Extended Data Figure 3M) (β2AR [2]; Sensor + Gs-peptide, Isoproterenol 1.00E-05 M, replicates 1-3 and Average): 5.22 and 6.17 and 4.29 and 5.19
- competition binding curve vs isoproterenol (Extended Data Figure 3M), Fit (β2AR [2]; Sensor + Gs-peptide, Isoproterenol 1.00E-06 M): 22.44
- competition binding curve vs isoproterenol (Extended Data Figure 3M) (β2AR [2]; Sensor + Gs-peptide, Isoproterenol 1.00E-06 M, replicates 1-3 and Average): 22.22 and 23.42 and 21.91 and 21.33
- competition binding curve vs isoproterenol (Extended Data Figure 3M), Fit (β2AR [2]; Sensor + Gs-peptide, Isoproterenol 1.00E-07 M): 61.20
- competition binding curve vs isoproterenol (Extended Data Figure 3M) (β2AR [2]; Sensor + Gs-peptide, Isoproterenol 1.00E-07 M, replicates 1-3 and Average): 61.19 and 63.45 and 61.62 and 58.48
- competition binding curve vs isoproterenol (Extended Data Figure 3M), Fit (β2AR [2]; Sensor + Gs-peptide, Isoproterenol 1.00E-08 M): 85.17
- competition binding curve vs isoproterenol (Extended Data Figure 3M) (β2AR [2]; Sensor + Gs-peptide, Isoproterenol 1.00E-08 M, replicates 1-3 and Average): 85.29 and 86.69 and 86.58 and 82.61
- competition binding curve vs isoproterenol (Extended Data Figure 3M), Fit (β2AR [2]; Sensor + Gs-peptide, Isoproterenol 1.00E-09 M): 97.00
- competition binding curve vs isoproterenol (Extended Data Figure 3M) (β2AR [2]; Sensor + Gs-peptide, Isoproterenol 1.00E-09 M, replicates 1-3 and Average): 96.71 and 101.87 and 95.55 and 92.70
- competition binding curve vs isoproterenol (Extended Data Figure 3M), Fit (β2AR [2]; Sensor + Gs-peptide, Isoproterenol 1.00E-10 M): 99.03
- competition binding curve vs isoproterenol (Extended Data Figure 3M) (β2AR [2]; Sensor + Gs-peptide, Isoproterenol 1.00E-10 M, replicates 1-3 and Average): 97.96 and 100.63 and 97.15 and 96.10
- competition binding curve vs isoproterenol (Extended Data Figure 3M), Fit (β2AR [2]; Sensor, Isoproterenol 1.00E-03 M): 0.48
- competition binding curve vs isoproterenol (Extended Data Figure 3M) (β2AR [2]; Sensor, Isoproterenol 1.00E-03 M, replicates 1-3 and Average): 0.69 and 0.84 and -0.72 and 0.27
- competition binding curve vs isoproterenol (Extended Data Figure 3M) (β2AR [2]; Sensor, Isoproterenol 1.00E-04 M, replicates 1-3 and Average): 1.32 and 1.71 and -0.50 and 0.84
- competition binding curve vs isoproterenol (Extended Data Figure 3M), Fit (β2AR [2]; Sensor, Isoproterenol 1.00E-05 M): 5.70
- competition binding curve vs isoproterenol (Extended Data Figure 3M) (β2AR [2]; Sensor, Isoproterenol 1.00E-05 M, replicates 1-3 and Average): 7.08 and 7.24 and 5.39 and 6.57
- competition binding curve vs isoproterenol (Extended Data Figure 3M), Fit (β2AR [2]; Sensor, Isoproterenol 1.00E-06 M): 30.01
- competition binding curve vs isoproterenol (Extended Data Figure 3M) (β2AR [2]; Sensor, Isoproterenol 1.00E-06 M, replicates 1-3 and Average): 30.57 and 29.08 and 29.48 and 29.71
- competition binding curve vs isoproterenol (Extended Data Figure 3M), Fit (β2AR [2]; Sensor, Isoproterenol 1.00E-07 M): 74.45
- competition binding curve vs isoproterenol (Extended Data Figure 3M) (β2AR [2]; Sensor, Isoproterenol 1.00E-07 M, replicates 1-3 and Average): 73.61 and 76.73 and 72.17 and 74.17
- competition binding curve vs isoproterenol (Extended Data Figure 3M), Fit (β2AR [2]; Sensor, Isoproterenol 1.00E-08 M): 96.90
- competition binding curve vs isoproterenol (Extended Data Figure 3M) (β2AR [2]; Sensor, Isoproterenol 1.00E-08 M, replicates 1-3 and Average): 94.98 and 101.48 and 95.93 and 97.46
- competition binding curve vs isoproterenol (Extended Data Figure 3M), Fit (β2AR [2]; Sensor, Isoproterenol 1.00E-09 M): 100.28
- competition binding curve vs isoproterenol (Extended Data Figure 3M) (β2AR [2]; Sensor, Isoproterenol 1.00E-09 M, replicates 1-3 and Average): 98.04 and 104.41 and 99.80 and 100.75
- competition binding curve vs isoproterenol (Extended Data Figure 3M), Fit (β2AR [2]; Sensor, Isoproterenol 1.00E-10 M): 100.63
- competition binding curve vs isoproterenol (Extended Data Figure 3M) (β2AR [2]; Sensor, Isoproterenol 1.00E-10 M, replicates 1-3 and Average): 100.71 and 99.53 and 99.04 and 99.76
- competition binding curve vs isoproterenol (Extended Data Figure 3M), Fit (β2AR [2]; Sensor, Isoproterenol 5.00E-06 M): 10.04
- competition binding curve vs isoproterenol (Extended Data Figure 3M) (β2AR [2]; Sensor, Isoproterenol 5.00E-06 M, replicates 2-3 and Average): 10.13 and 9.02 and 9.58
- competition binding curve vs isoproterenol (Extended Data Figure 3M), Fit (β2AR [2]; Sensor, Isoproterenol 5.00E-07 M): 42.59
- competition binding curve vs isoproterenol (Extended Data Figure 3M) (β2AR [2]; Sensor, Isoproterenol 5.00E-07 M, replicates 2-3 and Average): 41.48 and 44.45 and 42.96
- competition binding curve vs isoproterenol (Extended Data Figure 3L), Fit (β2AR [2]; Isoproterenol 1.00E-03 M): 0.69
- competition binding curve vs isoproterenol (Extended Data Figure 3L) (β2AR [2]; Isoproterenol 1.00E-03 M, replicates 1-3 and Average): 0.0116 and 0.0442 and 0.27 and -0.28
- competition binding curve vs isoproterenol (Extended Data Figure 3L), Fit (β2AR [2]; Isoproterenol 1.00E-04 M): 1.04
- competition binding curve vs isoproterenol (Extended Data Figure 3L) (β2AR [2]; Isoproterenol 1.00E-04 M, replicates 1-3 and Average): 0.88 and 0.89 and 0.84 and 0.90
- competition binding curve vs isoproterenol (Extended Data Figure 3L), Fit (β2AR [2]; Isoproterenol 1.00E-05 M): 4.37
